Measurements reported in the NIST ThermoML archive (doi:10.1021/je060271a).

Settings: 343.15 K, Liquid, Vibrating tube method

CCCCCCCC(=O)OCC(COC(=O)CCCCCCC)(COC(=O)CCCCCCC)COC(=O)CCCCCCC [pentaerythritol tetraoctanoate]
Settings | mass density [kg/m3]
27160 kPa | 944.5
27200 kPa | 944.7
27241 kPa | 944.7
27290 kPa | 944.7
27331 kPa | 944.6
27371 kPa | 944.7
27412 kPa | 944.8
27462 kPa | 944.7
27503 kPa | 944.8
27544 kPa | 944.8
27594 kPa | 944.9
27637 kPa | 944.8
27680 kPa | 944.9
27721 kPa | 944.9
27772 kPa | 945
27815 kPa | 945.1
27857 kPa | 945
27909 kPa | 945
27951 kPa | 945
28003 kPa | 945
28046 kPa | 945.1
28089 kPa | 945.1
28141 kPa | 945.3
28185 kPa | 945.2
28231 kPa | 945.3
28277 kPa | 945.4
28332 kPa | 945.4
28378 kPa | 945.4
28426 kPa | 945.4
28478 kPa | 945.5
28513 kPa | 945.4
28545 kPa | 945.5
28583 kPa | 945.4
28615 kPa | 945.4
28647 kPa | 945.5
28680 kPa | 945.5
28720 kPa | 945.7
28753 kPa | 945.6
28786 kPa | 945.6
28818 kPa | 945.8
28858 kPa | 945.7
28890 kPa | 945.7
28923 kPa | 945.7
28963 kPa | 945.7
28996 kPa | 945.8
29036 kPa | 945.8
29070 kPa | 945.9
29104 kPa | 945.8
29138 kPa | 945.9
29179 kPa | 945.9
29207 kPa | 945.8
29247 kPa | 946
29281 kPa | 945.9
29321 kPa | 945.9
29355 kPa | 946
29389 kPa | 946
29424 kPa | 946
29465 kPa | 946
29500 kPa | 946
29534 kPa | 946.1
29570 kPa | 946.1
29612 kPa | 946.1
29648 kPa | 946.2
29685 kPa | 946.2
29720 kPa | 946.2
29754 kPa | 946.3
29797 kPa | 946.2
29832 kPa | 946.2
29874 kPa | 946.2
29910 kPa | 946.3
29945 kPa | 946.3
29987 kPa | 946.4
30024 kPa | 946.4
30060 kPa | 946.5
30096 kPa | 946.4
30139 kPa | 946.4
30175 kPa | 946.5
30212 kPa | 946.4
30255 kPa | 946.6
30291 kPa | 946.5
30327 kPa | 946.7
30371 kPa | 946.5
30525 kPa | 946.7
30562 kPa | 946.8
30607 kPa | 946.7
30646 kPa | 946.7
30682 kPa | 946.8
30727 kPa | 946.8
30764 kPa | 946.9
30802 kPa | 946.8
30847 kPa | 946.8
30885 kPa | 946.9
30923 kPa | 947
31006 kPa | 946.9
31045 kPa | 947
31091 kPa | 947
31130 kPa | 947
31169 kPa | 947.2
31208 kPa | 947.1
31255 kPa | 947.1
31294 kPa | 947.2
31341 kPa | 947.1
31380 kPa | 947.2
31411 kPa | 947.1
31459 kPa | 947.2
31506 kPa | 947.2
31538 kPa | 947.4
31586 kPa | 947.3
31633 kPa | 947.5
31674 kPa | 947.4
31717 kPa | 947.3
31758 kPa | 947.5
31807 kPa | 947.4
31848 kPa | 947.5
31898 kPa | 947.5
31942 kPa | 947.5
31985 kPa | 947.6
32036 kPa | 947.6
32074 kPa | 947.7
32104 kPa | 947.6
32141 kPa | 947.6
32172 kPa | 947.8
32204 kPa | 947.8
32242 kPa | 947.7
32273 kPa | 947.7
32305 kPa | 947.9
32342 kPa | 947.7
32374 kPa | 947.9
32405 kPa | 947.8
32443 kPa | 947.8
32475 kPa | 947.8
32507 kPa | 947.8
32545 kPa | 947.9
32577 kPa | 947.9
32610 kPa | 948
32644 kPa | 948
32671 kPa | 948
32710 kPa | 948
32736 kPa | 948.1
32762 kPa | 948.1
32840 kPa | 948
32885 kPa | 948.1
32925 kPa | 948
32958 kPa | 948.2
32991 kPa | 948.3
33030 kPa | 948.3
33064 kPa | 948.3
33099 kPa | 948.3
